Data on 29 compounds can be found in patent US9902702B2, “Spirocycloheptanes as inhibitors of rock” (BRISTOL-MYERS SQUIBB COMPANY, priority 2014, dated 2018).

Structures can show the parent of a compound that is named as a salt.

The target of the test is ROCK2 (Homo sapiens, UniProt O75116). Briefly: ROCK assay: phosphorylation of FITC peptide substrate, LABCHIP 3000 mobility shift. Type of test: biochemical. As to conditions: 5 μM ATP, 1.5 μM peptide substrate; read-out: ROCK2 Activity (ROCK IC50 range). An outline of the steps:
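Rho kinase variant phosphorylates 1.5 μM FITC-AHA-AKRRRLSSLRA-OH with 5 μM ATP in 20 mM HEPES pH 7.5, 20 mM MgCl2, 0.015% Brij-35, 4 mM DTT, DMSO <2%. EDTA stops the reaction, and phospho and non-phospho peptides are resolved by LabChip 3000 mobility shift. IC50 from dose-response curve fit.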

Sequence of ROCK2 (O75116 whole entry, species assumed): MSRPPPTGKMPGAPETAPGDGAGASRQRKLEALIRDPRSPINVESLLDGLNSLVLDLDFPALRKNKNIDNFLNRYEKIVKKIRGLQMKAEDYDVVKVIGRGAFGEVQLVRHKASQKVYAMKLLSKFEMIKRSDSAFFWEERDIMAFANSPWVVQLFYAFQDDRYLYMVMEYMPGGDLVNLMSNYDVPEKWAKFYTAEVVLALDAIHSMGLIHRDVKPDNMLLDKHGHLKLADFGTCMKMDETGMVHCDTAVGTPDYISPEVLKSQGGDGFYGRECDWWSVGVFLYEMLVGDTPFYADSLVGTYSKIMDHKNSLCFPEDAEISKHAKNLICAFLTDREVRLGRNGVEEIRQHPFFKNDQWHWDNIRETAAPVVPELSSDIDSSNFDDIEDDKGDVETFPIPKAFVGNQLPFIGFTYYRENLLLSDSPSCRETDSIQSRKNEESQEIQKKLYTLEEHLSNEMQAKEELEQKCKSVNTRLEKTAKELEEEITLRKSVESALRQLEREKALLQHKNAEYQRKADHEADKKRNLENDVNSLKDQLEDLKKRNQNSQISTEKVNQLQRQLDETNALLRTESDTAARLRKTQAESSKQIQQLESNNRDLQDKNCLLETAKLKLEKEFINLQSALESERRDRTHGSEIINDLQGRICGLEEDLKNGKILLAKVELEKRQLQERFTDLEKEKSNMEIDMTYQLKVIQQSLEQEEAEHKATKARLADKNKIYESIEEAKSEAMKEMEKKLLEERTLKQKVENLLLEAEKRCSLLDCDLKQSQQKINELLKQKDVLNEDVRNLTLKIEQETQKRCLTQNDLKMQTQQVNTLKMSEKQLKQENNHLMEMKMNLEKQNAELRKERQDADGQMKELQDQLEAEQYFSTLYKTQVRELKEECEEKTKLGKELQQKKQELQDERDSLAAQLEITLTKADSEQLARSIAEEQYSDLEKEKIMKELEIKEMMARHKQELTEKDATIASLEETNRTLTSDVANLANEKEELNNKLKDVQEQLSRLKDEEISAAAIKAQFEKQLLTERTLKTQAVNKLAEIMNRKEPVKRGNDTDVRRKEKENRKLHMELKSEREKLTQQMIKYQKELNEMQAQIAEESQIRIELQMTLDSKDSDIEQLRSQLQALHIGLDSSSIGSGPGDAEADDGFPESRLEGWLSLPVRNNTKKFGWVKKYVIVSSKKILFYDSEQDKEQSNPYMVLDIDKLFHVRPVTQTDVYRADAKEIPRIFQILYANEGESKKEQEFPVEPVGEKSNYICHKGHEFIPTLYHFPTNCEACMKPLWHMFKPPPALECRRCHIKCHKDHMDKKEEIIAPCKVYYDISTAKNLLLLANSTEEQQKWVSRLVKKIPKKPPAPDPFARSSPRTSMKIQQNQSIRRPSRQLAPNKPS

By IC50 is commonly meant the concentration needed to halve the response being measured. Take `Cc1nc(N2CCC(C#N)C2)sc1C(=O)NC1CC2(C1)CC(c1n[nH]c(=O)c3ccccc13)C2` [Example 39, 2-[(3R)-3-cyanopyrrolidin-1-yl]-4-methyl-N-[(aR)-6-(4-oxo-3,4-dihydrophthalazin-1-yl)spiro[3.3]heptan-2-yl]-1,3-thiazole-5-carboxamide]: the IC50 lay in the range of 5.1 to 15 nM.

`[H][C@]1(c2n[nH]c(=O)c3ccccc32)C[C@]2(C[C@@H](NC(=O)c3ccc(-c4cn[nH]c4)c(OC)c3)C2)C1` (stereo partly drawn) [Example 416, 3-methoxy-N-((aR)-6-(4-oxo-3,4-dihydrophthalazin-1-yl)spiro[3.3]heptan-2-yl)-4-(1H-pyrazol-4-yl)benzamide]: the IC50 was in the range of 0.2 to 2 nM.

In the case of `COCc1c(OCC(C)(C)O)ccc2c(C(=O)NC3CC4(C3)CC(c3n[nH]c(=O)c5ccccc35)C4)cnn12` [Example 113, 6-(2-hydroxy-2-methylpropoxy)-7-(methoxymethyl)-N-((aR)-6-(4-oxo-3,4-dihydrophthalazin-1-yl)spiro[3.3]heptan-2-yl)pyrazolo[1,5-a]pyridine-3-carboxamide], the IC50 lay within 2.01 to 5 nM.

With `CC(C)(O)Cn1nc(C(=O)NC2CC3(C2)CC(c2n[nH]c(=O)c4ccccc24)C3)c2ccccc21` (centres unmarked) [Example 11, 1-(2-hydroxy-2-methylpropyl)-N-[6-(4-oxo-3,4-dihydrophthalazin-1-yl)spiro[3.3]heptan-2-yl]-1H-indazole-3-carboxamide], the half-inhibitory concentration (IC50) was in the range of 15.1 to 100 nM.

As for `Cc1nc(N2CCC(F)C2)sc1C(=O)NC1CC2(C1)CC(c1n[nH]c(=O)c3ccccc13)C2` [Example 36, 2-[(3S)-3-fluoropyrrolidin-1-yl]-4-methyl-N-[(aR)-6-(4-oxo-3,4-dihydrophthalazin-1-y)spiro[3.3]heptan-2-yl]-1,3-thiazole-5-carboxamide], the IC50 lay in the range of 2.01 to 5 nM.

As for `CCn1cc(-c2ccn3c(C(=O)N[C@H]4CC5(C4)C[C@H](c4n[nH]c(=O)c6ccccc64)C5)cnc3c2)cn1` (stereo partly drawn) [Example 439, 7-(1-ethyl-1H-pyrazol-4-yl)-N-((aR)-6-(4-oxo-3,4-dihydrophthalazin-1-yl)spiro[3.3]heptan-2-yl)imidazo[1,2-a]pyridine-3-carboxamide, TFA salt], the IC50 lay in the range of 0.2 to 2 nM.

For `Cn1nccc1-c1ccc2c(C(=O)NC3CC4(C3)CC(c3n[nH]c(=O)c5ccccc35)C4)nn(CC(C)(C)O)c2c1` (centres unmarked) [Example 146, 1-(2-hydroxy-2-methylpropyl)-6-(1-methyl-1H-pyrazol-5-yl)-N-((αR)-6-(4-oxo-3,4-dihydrophthalazin-1-yl)spiro[3.3]heptan-2-yl)-1H-indazole-3-carboxamide], the IC50 is 2.01 to 5 nM.

For the compound `[H][C@]1(c2n[nH]c(=O)c3ccccc32)C[C@]2(C[C@@H](NC(=O)c3cnc4cc(Oc5ccccn5)ccn34)C2)C1` (stereo partly drawn) [Example 434, N-((aR)-6-(4-oxo-3,4-dihydrophthalazin-1-yl)spiro[3.3]heptan-2-yl)-7-(pyridin-2-yloxy)imidazo[1,2-a]pyridine-3-carboxamidc], the IC50 lay in the range of 0.2 to 2 nM.

For `[H][C@]1(c2n[nH]c(=O)c3ccccc32)C[C@]2(C[C@@H](NC(=O)c3cnc4cc(OCc5ccccc5)ccn34)C2)C1` (stereo partly drawn) [Example 384, 7-(benzyloxy)-N-((aR)-6-(4-oxo-3,4-dihydrophthalazin-1-yl)spiro[3.3]heptan-2-yl)imidazo[1,2-a]pyridine-3-carboxamide], the half-maximal inhibitory concentration (IC50) lay in the range of 0.2 to 2 nM.

For `CN(C)CCCc1ccc2c(C(=O)NC3CC4(C3)CC(c3n[nH]c(=O)c5ccccc35)C4)cnn2c1` [Example 193, 6-(3-(dimethylamino)propyl)-N-((aR)-6-(4-oxo-3,4-dihydrophthalazin-1-yl)spiro[3.3]heptan-2-yl)pyrazolo[1,5-a]pyridine-3-carboxamide], the IC50 was 5.1 to 15 nM.

Turning to `O=C(N[C@H]1CC2(C1)C[C@H](c1n[nH]c(=O)c3ccccc31)C2)c1onc2cc(Br)ccc12` (stereo partly drawn) [Example 284, 6-bromo-N-((aR)-6-(4-oxo-3,4-dihydrophthalazin-1-yl)spiro[3.3]heptan-2-yl)benzo[c]isoxazole-3-carboxamide], the concentration for half-maximal inhibition (IC50) lay in the range of 2.01 to 5 nM.

Regarding `[H][C@]1(c2n[nH]c(=O)c3ccccc32)C[C@]2(C[C@@H](NC(=O)c3cnc4cc(C(C)O)ccn34)C2)C1` (stereo partly drawn) [Example 430, 7-(1-hydroxyethyl)-N-((aR)-6-(4-oxo-3,4-dihydrophthalazin-1-yl)spiro[3.3]heptan-2-yl)imidazo[1,2-a]pyridine-3-carboxamide], the IC50 lay in the range of 5.1 to 15 nM.

`Cn1nc(C(=O)NC2CC3(C2)CC(c2n[nH]c(=O)n4cccc24)C3)c2ccccc21` (centres unmarked) [Example 280, 1-methyl-N-(6-(4-oxo-3,4-dihydropyrrolo[1,2-d][1,2,4]triazin-1-yl)spiro[3.3]heptan-2-yl)-1H-indazole-3-carboxamide, TFA]: the concentration for half-maximal inhibition (IC50) fell in the range of 5.1 to 15 nM.

Take `O=C(NC1CC2(C1)CC(c1n[nH]c(=O)c3ccccc13)C2)c1cnn2cc(OCCN3CCC(F)(F)C3)ccc12` [Example 185, 6-(2-(3,3-difluoropyrrolidin-1-yl)ethoxy)-N-((aR)-6-(4-oxo-3,4-dihydrophthalazin-1-yl)spiro[3.3]heptan-2-yl)pyrazolo[1,5-a]pyridine-3-carboxamide]: the IC50 lay in the range of 0.2 to 2 nM.

On to `Cn1cc(-c2ccc(NC(=O)NC3CC4(C3)CC(c3n[nH]c(=O)c5ccccc35)C4)cc2)cn1` [Example 228, 1-(4-(1-methyl-1H-pyrazol-4-yl)phenyl)-3-((aR)-6-(4-oxo-3,4-dihydrophthalazin-1-yl)spiro[3.3]heptan-2-yl)urea], for which the IC50 lay within 5.1 to 15 nM.

Regarding `CC(C)(O)Cn1nc(C(=O)NC2CC3(C2)CC(c2n[nH]c(=O)c4ccccc24)C3)c2ccccc21` (single isomer, unassigned) [Example 21], the IC50 was in the range of 2.01 to 5 nM.

For `[H][C@]1(c2n[nH]c(=O)c3ccccc32)C[C@]2(C[C@@H](NC(=O)c3cnc4cc(C(C)(C)O)ccn34)C2)C1` (stereo partly drawn) [Example 429, 7-(2-hydroxypropan-2-yl)-N-((aR)-6-(4-oxo-3,4-dihydrophthalazin-1-yl)spiro[3.3]heptan-2-yl)imidazo[1,2-a]pyridine-3-carboxamide], the IC50 was 15.1 to 100 nM.

For `O=C(N[C@H]1CC2(C1)C[C@H](c1n[nH]c(=O)c3ccccc31)C2)N1CCc2cc(Br)ccc21` (stereo partly drawn) [Example 234, 5-Bromo-N-((aR)-6-(4-oxo-3,4-dihydrophthalazin-1-yl)spiro[3.3]heptan-2-yl)indoline-1-carboxamide], the IC50 is 2.01 to 5 nM.

`O=C(NC1CC2(C1)CC(c1n[nH]c(=O)c3ccccc13)C2)c1cccc(-c2cn[nH]c2)c1` [Example 339, N-((aR)-6-(4-oxo-3,4-dihydrophthalazin-1-yl)spiro[3.3]heptan-2-yl)-3-(1H-pyrazol-4-yl)benzamide]: the IC50 was 15.1 to 100 nM.

Take `[H][C@]1(c2n[nH]c(=O)c3ccccc32)C[C@]2(C[C@@H](NC(=O)c3cnn4cccc(Br)c34)C2)C1` (stereo partly drawn) [Example 304, 4-bromo-N-((aR)-6-(4-oxo-3,4-dihydrophthalazin-1-yl)spiro[3.3]heptan-2-yl)pyrazolo[1,5-a]pyridine-3-carboxamide]: the IC50 is 15.1 to 100 nM.

Turning to `O=C(NC1CC2(C1)CC(c1n[nH]c(=O)c3ccccc13)C2)c1ccnn1C1CCOCC1` [Example 104, N-((aR)-6-(4-oxo-3,4-dihydrophthalazin-1-yl)spiro[3.3]heptan-2-yl)-1-(tetrahydro-2H-pyran-4-yl)-1H-pyrazole-5-carboxamide], the IC50 fell in the range of 100 to 2100 nM.

As to `[H][C@]1(c2n[nH]c(=O)c3ccccc32)C[C@]2(C[C@@H](NC(=O)c3ccc(-n4cccn4)nc3)C2)C1` (stereo partly drawn) [Example 346, N-((aR)-6-(4-oxo-3,4-dihydrophthalazin-1-yl)spiro[3.3]heptan-2-yl)-6-(1H-pyrazol-1-yl)nicotinamide], the IC50 fell in the range of 15.1 to 100 nM.

As for `O=C(NC1CC2(C1)CC(c1n[nH]c(=O)c3ccccc13)C2)N1Cc2ccncc2C1` [Example 264, N-((aR)-6-(4-oxo-3,4-dihydrophthalazin-1-yl)spiro[3.3]heptan-2-yl)-1H-pyrrolo[3,4-c]pyridine-2(3H)-carboxamide], the IC50 was 15.1 to 100 nM.

With `O=C(NC1CC2(C1)CC(c1n[nH]c(=O)c3ccccc13)C2)c1cnn2cc(CCCNC3CC3)ccc12` (centres unmarked) [Example 194], the IC50 fell in the range of 5.1 to 15 nM.

In the case of `[H][C@]1(c2n[nH]c(=O)c3ccccc32)C[C@]2(C[C@@H](NC(=O)c3cnc4cc(-c5cnn(C(C)C)c5)ccn34)C2)C1` (stereo partly drawn) [Example 441, 7-(1-isopropyl-1H-pyrazol-4-yl)-N-((aR)-6-(4-oxo-3,4-dihydrophthalazin-1-yl)spiro[3.3]heptan-2-yl)imidazo[1,2-a]pyridine-3-carboxamide], the IC50 was in the range of 0.2 to 2 nM.

With `O=C(NC1CC2(C1)CC(c1n[nH]c(=O)c3ccccc13)C2)c1nn(-c2cccc(Cl)c2)c2c1CCNC2=O` [Example 288, 1-(3-chlorophenyl)-7-oxo-N-((aR)-6-(4-oxo-3,4-dihydrophthalazin-1-yl)spiro[3.3]heptan-2-yl)-4,5,6,7-tetrahydro-1H-pyrazolo[3,4-c] pyridine-3-carboxamide], the half-maximal inhibitory concentration (IC50) was in the range of 15.1 to 100 nM.

In the case of `[H][C@]1(c2n[nH]c(=O)c3ccccc32)C[C@]2(C[C@@H](NC(=O)c3cnc4cc(OCCN5CCCC5)ccn34)C2)C1` (stereo partly drawn) [Example 401, N-((aR)-6-(4-oxo-3,4-dihydrophthalazin-1-yl)spiro[3.3]heptan-2-yl)-7-(2-(pyrrolidin-1-yl)ethoxy)imidazo[1,2-a]pyridine-3-carboxamide], the IC50 lay within 2.01 to 5 nM.

With `O=C(NC1CC2(C1)CC(c1n[nH]c(=O)c3ccccc13)C2)c1cnn2cc(N3CCCC3)ccc12` [Example 87, N-((aR)-6-(4-oxo-3,4-dihydrophthalazin-1-yl)spiro[3.3]heptan-2-yl)-6-(pyrrolidin-1-yl)pyrazolo[1,5-a]pyridine-3-carboxamide], the half-maximal inhibitory concentration (IC50) was in the range of 0.2 to 2 nM.

Take `[H][C@]1(c2n[nH]c(=O)c3ccccc32)C[C@]2(C[C@@H](NC(=O)c3cnc4c(Cl)c(C)ccn34)C2)C1` (stereo partly drawn) [Example 386, 8-chloro-7-methyl-N-((aR)-6-(4-oxo-3,4-dihydro-phthalazin-1-yl)spiro[3.3]heptan-2-yl)imidazo[1,2-a]pyridine-3-carboxamide]: the IC50 lay in the range of 2.01 to 5 nM.
